Legend:
Type in all cases: functional
[1] = tested on: Mycobacterium tuberculosis; experiment: Antitubercular activity against multi drug-resistant Mycobacterium tuberculosis clinical isolate after 30 days by agar microdilution method
[2] = tested on: Mycobacterium tuberculosis; experiment: Antitubercular activity against extensively drug-resistant Mycobacterium tuberculosis clinical isolate after 30 days by agar microdilution method
[3] = tested on: Mycobacterium tuberculosis; experiment: Antitubercular activity against RMF-resistant Mycobacterium tuberculosis clinical isolate1 after 30 days by agar microdilution method
[4] = tested on: Mycobacterium tuberculosis; experiment: Antitubercular activity against RMF-resistant Mycobacterium tuberculosis clinical isolate2 after 30 days by agar microdilution method

Measured: MIC

OC(c1ccc(OCc2ccc(OCCN3CCCCC3)cc2)cc1)C1CC1 (centres undefined)
12.5 µg/mL: all assays above

Reference: ChEMBL document CHEMBL1629520, “Synthesis and optimization of antitubercular activities in a series of 4-(aryloxy)phenyl cyclopropyl methanols” (Eur J Med Chem, 2010)
